# According to patent US20220267258A1, “ROBENIDINE ANALOGS AS POTENT ANTIMALARIALS AGAINST DRUG-RESISTANT PLASMODIUM FALCIPARUM” (OREGON HEALTH & SCIENCE UNIVERSITY, priority 2021, published 2022):
# Structures can show the parent of a compound that is named as a salt. Where two headings read alike, the source gives them in different places.
# What was measured:
# P. falciparum A6 = test: SYBR Green growth inhibition assay, P. falciparum A6; format: cell-based, Plasmodium falciparum; details: read-out: IC50 A6
# Protocol: (§1) In addition to the drug-sensitive P. falciparum D6 strain, the aminoguanidines were assessed against three drug-resistant strains (Tables 1-3).
# (§2) The following parasite strains were used in this study and obtained through BEI Resources, NIAID, NIH. […] The culture medium used was RPMI-1640, supplemented with 25 mM HEPES buffer, 25 mg/L gentamicin sulfate, 45 mg/L hypoxanthine, 10 mM glucose, 2 mM glutamine, and 0.5% Albumax II (complete medium).^43 Cultures were maintained in a standard low oxygen atmosphere (5% O2, 5% CO2, 90% N2) in an environmental chamber and incubated at 37° C. Cultures were sub-passaged every 3-4 days into a fresh culture flask containing complete media and erythrocytes.
# (§3) The aminoguanidine series was assessed for in vitro antiplasmodial activity using the fluorescence-based SYBR Green assay described previously by Smilkstein and co-workers.^38 Compounds were evaluated in quadruplicate in flat-bottomed Costar clear 96-well plates (Model #3585). A two-fold serial dilution of each compound was performed across the columns of the test plates starting with 20 μM and ending with a final untreated column to serve as control wells. Asynchronous parasite infected erythrocytes in growth media were added to each well for a total volume of 100 μL, final hematocrit of 2%, and initial parasitemia of 0.2%. The commercial malaria drugs atovaquone and chloroquine were used as control drugs. Test plates were incubated for 72 hr at 37° C. in an environmental chamber with a controlled low oxygen atmosphere (5% O2, 5% CO2, 90% N2). After the incubation period, 100 μL SYBR Green I dye-detergent solution was added to each well, and the plates were incubated at ambient temperature and atmosphere in the dark for at least one hour. Fluorescence was read at 497 nm excitation and 520 nm emission bands using a Spectramax iD3 plate reader. Fluorescence readings were normalized with respect to the untreated control wells representing normal parasite growth and plotted against the logarithm of drug concentration.
# P. falciparum strain D6 = test: SYBR Green growth inhibition assay, P. falciparum D6; format: cell-based, Plasmodium falciparum; details: read-out: IC50 D6
# Protocol: The in vitro activity of each compound in the aminoguanidine library was assessed against asynchronous cultures of Plasmodium falciparum parasites replicating within human erythrocytes (Tables 1-3). As the chemical development of robenidine was not discussed in its original publication in 1970^4 and limited structural information is available regarding its mechanism of action,^10 profiling was guided primarily by in vitro potency against the P. falciparum D6 strain cultured in human erythrocytes as described above.
# as §2
# as §3, with “The commercial malaria drugs atovaquone and chloroquine were used as control drugs.” left out
# P. falciparum Dd2 = test: SYBR Green growth inhibition assay, P. falciparum Dd2; format: cell-based, Plasmodium falciparum; details: read-out: IC50 Dd2
# Protocol: as §1, §2, §3
# [1] = HepG2 cytotoxicity assay (resazurin); format: cell-based, human; details: human, HepG2 cells; HepG2, 24 hr drug, 24 hr recovery
# Protocol: (§4) In this assay, HepG2 cells were incubated with test compounds for 24 hours, followed by a 24-hour recovery period and subsequent staining to evaluate for cytotoxic effects with resazurin. The ratio of the resulting HepG2 IC50 value to the P. falciparum D6 IC50 value can be considered an ‘in vitro therapeutic index,’ or IVTI.
# (§5) Compounds were prepared as 10 mM stock solutions in DMSO. […] HepG2 cells were added to each well of flat bottom 96-well tissue culture plates at an initial density of 2×10^4 cells per well, and an initial volume of 160 μL complete medium per well. After an overnight incubation at 37° C. to adhere the cells to the culture plates, 40 μL drug solutions in complete medium were applied to each well at a final concentration range of 0 to 200 μM across each plate. Drugs were tested in triplicate or quadruplicate. The cells were incubated for 24 hours at 37° C. and 5% CO2 with the drug solutions, which were then aspirated and replaced with 200 μL per well of complete medium for an additional 24 hour incubation under the same conditions. To each well was added 20 μL of resazurin (Alamar Blue) in PBS buffer to a final concentration of 10 μM, and the plates were incubated for 3 hours. Fluorescence was measured at 560 nm excitation and 590 nm emission bands using a Spectramax iD3 plate reader. Fluorescence readings were normalized with respect to the untreated control wells and plotted against the logarithm of drug concentration.
# P. falciparum Tm90-C2B = test: SYBR Green growth inhibition assay, P. falciparum Tm90-C2B; format: cell-based, Plasmodium falciparum; details: read-out: IC50 Tm90-C2B
# Protocol: as §1, §2, §3
# [2] = test system: human hepatoma derived HepG2 cells; test: HepG2 cytotoxicity assay (resazurin); format: cell-based; details: HepG2, 24 hr drug, 24 hr recovery
# Protocol: as §4, §5
# [3] = Plasmodium falciparum, D6, Erythrocyte, 72 h
# [4] = Plasmodium falciparum, DD2, 72 h
# [5] = Plasmodium falciparum, TM90, 72 h
# [6] = mutant line resistant to respiratory antagonists, 72 hr
# [7] = pan-sensitive strain, 72 hr, asynchronous cultures in human erythrocytes
# [8] = multi-drug resistant strain, 72 hr
# [9] = multi-drug resistant clinical isolate, also atovaquone resistant, 72 hr
SMILES,"IC50 (P. falciparum A6; Plasmodium falciparum, 72 h)",IC50 (P. falciparum strain D6; [3]),IC50 (P. falciparum Dd2; [4]),IC50 at 24 h [1],IC50 (P. falciparum Tm90-C2B; [5]),IC50 (P. falciparum A6; [6]),IC50 (P. falciparum strain D6; [7]),IC50 (P. falciparum Dd2; [8]),IC50 [2],IC50 (P. falciparum Tm90-C2B; [9]),"IC50 (P. falciparum strain D6; Plasmodium falciparum, D6, Erythrocyte, pan-sensitive strain, 72 hr, asynchronous cultures in human erythrocytes)"
N=C(N/N=C/c1ccc(O)cc1)N/N=C/c1ccc(O)cc1 [Compound 25],278 nM,143 nM,240 nM,39000 nM,286 nM,,,,,,
CC#COc1ccc(/C=N/NC(=N)N/N=C/c2ccc(OC#CC)cc2)cc1 [Compound 32],153 nM,102 nM,199 nM,> 200000 nM,376 nM,,,,,,
Cc1ccc(/C=N/NC(=N)N/N=C/c2ccc(C)cc2)cc1 [Compound 10],> 5000 nM,905 nM,2430 nM,43000 nM,2530 nM,,,,,,
CN(C)c1ccc(/C=N/NC(=N)N/N=C/c2ccc(N(C)C)cc2)cc1 [Compound 28],122 nM,118 nM,264 nM,20000 nM,213 nM,,,,,,
N=C(N/N=C/c1cccc(F)c1)N/N=C/c1cccc(F)c1 [Compound 3],426 nM,767 nM,> 5000 nM,49000 nM,> 5000 nM,,,,,,
N=C(N/N=C/c1ccccc1)N/N=C/c1ccccc1 [Compound 24],581 nM,705 nM,4300 nM,> 200000 nM,> 5000 nM,,,,,,
N=C(N/N=C/c1ccc(Br)cc1)N/N=C/c1ccc(Br)cc1 [Compound 9],269 nM,277 nM,876 nM,38000 nM,899 nM,,,,,,
N=C(N/N=C/c1ccc(N2CCOCC2)cc1)N/N=C/c1ccc(N2CCOCC2)cc1 [Compound 33],116 nM,131 nM,329 nM,> 200000 nM,295 nM,,,,,,
N=C(NN=Cc1ccc(S(N)(=O)=O)cc1)NN=Cc1ccc(S(N)(=O)=O)cc1 [Compound 31],,,,,,> 5000 nM,> 5000 nM,> 5000 nM,> 200000 nM,> 5000 nM,
N=C(N/N=C/c1ccccc1F)N/N=C/c1ccccc1F [Compound 2],1890 nM,2870 nM,4590 nM,> 200000 nM,> 5000 nM,,,,,,
"O=C1C(O)=C([C@H]2CC[C@H](c3ccc(Cl)cc3)CC2)C(=O)c2ccccc21 [Atovaquone, reference compound]",> 5000 nM,,< 1 nM,,> 5000 nM,,,,72000 nM,,< 1 nM
N=C(N/N=C/c1ccccc1Cl)N/N=C/c1ccccc1Cl [Compound 5],348 nM,334 nM,961 nM,> 200000 nM,1220 nM,,,,,,
N=C(N/N=C/c1cccc(OC(F)(F)F)c1)N/N=C/c1cccc(OC(F)(F)F)c1 [Compound 15],689 nM,670 nM,1570 nM,61000 nM,2990 nM,,,,,,
COc1ccc(/C=N/NC(=N)N/N=C/c2ccc(OC)cc2)cc1 [Compound 11],289 nM,263 nM,1600 nM,> 200000 nM,> 5000 nM,,,,,,
N=C(N/N=C/c1ccc(OC(F)F)cc1)N/N=C/c1ccc(OC(F)F)cc1 [Compound 18],87 nM,71 nM,191 nM,19000 nM,193 nM,,,,,,
N=C(N/N=C/c1ccccc1Br)N/N=C/c1ccccc1Br [Compound 7],876 nM,280 nM,715 nM,94000 nM,974 nM,,,,,,
"N=C(NN=Cc1ccc2c(c1)OC(F)(F)O2)NN=Cc1ccc2c(c1)OC(F)(F)O2 [Compound 36, 2,2′-Bis{[4-(2,2-difluoro-2,3-dioxazolo)]phenyl}methylene]carbonimidic Dihydrazide Hydrochloride]",,,,,,235 nM,250 nM,800 nM,> 200000 nM,905 nM,
N=C(N/N=C/c1ccccc1)N/N=C/c1ccccc1F [Compound 38],833 nM,1030 nM,2200 nM,> 200000 nM,> 5000 nM,,,,,,
N=C(NN=Cc1ccc([N+](=O)[O-])cc1)NN=Cc1ccc([N+](=O)[O-])cc1 [Compound 27],,,,,,85 nM,96 nM,198 nM,> 200000 nM,247 nM,
N=C(N/N=C/c1ccc(F)cc1)N/N=C/c1ccc(F)cc1 [Compound 4],369 nM,1020 nM,3790 nM,24000 nM,4900 nM,,,,,,
N=C(N/N=C/c1ccccc1OC(F)(F)F)N/N=C/c1ccccc1OC(F)(F)F [Compound 14],391 nM,1080 nM,2330 nM,156000 nM,> 5000 nM,,,,,,
N#Cc1ccccc1/C=N/NC(=N)N/N=C/c1ccccc1C#N [Compound 20],969 nM,1020 nM,2100 nM,31000 nM,1990 nM,,,,,,
N=C(N/N=C/c1cccc(Cl)c1)N/N=C/c1cccc(Cl)c1 [Compound 6],237 nM,202 nM,567 nM,35000 nM,664 nM,,,,,,
N=C(N/N=C/c1ccc(C(F)(F)F)cc1)N/N=C/c1ccc(C(F)(F)F)cc1 [Compound 12],567 nM,614 nM,1540 nM,40000 nM,2740 nM,,,,,,
N=C(N/N=C/c1cccc(Br)c1)N/N=C/c1cccc(Br)c1 [Compound 8],502 nM,572 nM,1520 nM,62000 nM,1840 nM,,,,,,
N=C(N/N=C/c1ccc(-c2ccccc2)cc1)N/N=C/c1ccc(-c2ccccc2)cc1 [Compound 26],33 nM,15 nM,87 nM,> 200000 nM,71 nM,,,,,,
